Measured values taken from patent US11754486B2, “Systems and methods for measuring properties of particles” (Massachusetts Institute of Technology, priority 2017, dated 2023).

Columns and labels:
[1] = tested on: L1210 cells; assay: SNACS / node deviation end-point assay of chemically perturbed L1210 cells in the suspended microchannel resonator (SMR); type: cell-based, mouse; conditions: for SNACS (size-normalized acoustic scattering, proxy of cell stiffness) after treatment: L1210 cells pretreated 20-30 min, LatB 0.02-1 μM, CytoD 1 μM, Bleb 50 μM, Noc 1 μg/ml, vs DMSO 0.1% control, LatB and CytoD p<0.0001
Procedure: SMR devices were fabricated at CEA-LETI, Grenoble, France. The fluid channel in the detection regime is covered with thin silicon layers. The SMRs were vibrated with a piezo-ceramic plate bonded underneath the chip, providing actuation to resonate the cantilever beam in the second mode. To track the changes in the resonant frequency of the cantilever as a function of time, the cantilever was kept in a feedback loop oscillating at its resonant frequency. The motion of the cantilever was measured using piezoresistors that are implanted at the base of the silicon cantilever. A digital control platform was utilized to oscillate the SMR in direct feedback mode, where the motion signal acquired from the piezoresistor is delayed, amplified, and utilized as the drive signal used to actuate the cantilever. The measurement bandwidth of this control system was set at ˜1,500 Hz, which is wide enough to capture frequency modulation signals created by cell transit events and narrow enough to minimize noise.
(§1) The system was operated by placing a chip on top of a hollow copper plate that is connected to a water bath by tubing to maintain constant temperature on the chip. For all single-cell, long-term monitoring experiments, the temperature of the copper plate was kept at 37° C. The sample was loaded to the SMR from vials pressurized with air containing 5% CO2 to maintain the pH of the culture. A 0.007″ inner diameter fluorinated ethylene propylene (FEP) tubing (IDEX Health & Science) was utilized to push the sample into the chip. The fluid flow was controlled using two electronic pressure regulators (Proportion Air QPV1) and three solenoid valves (SMC-S070), which were controlled by National Instruments control cards and a custom measurement software (Labview 2012). Typically, differential pressure of ˜0.5 psi was applied across the SMR, yielding a flow rate of ˜2 nL/s (calculated based on the frequency modulation signal due a cell transit; typically 200-300 ms) to maintain constant shear and data rate. Under these conditions, the L1210 cell growth rate was similar to that in culture. Beads, hydrogels and drug-response end-point assays were measured at room temperature. All end-point assays were conducted within 30 minutes after samples were loaded. New samples were flushed every several minutes into the input bypass to minimize potential size bias due to particle/cell settling in the tubing and sample vials.
To measure buoyant mass (antinode) and node deviation (node) from the acquired resonant frequency waveforms, the frequency data was filtered with a third order Savitzky-Golay low-pass filter and the local minima (antinode) that is below a user-defined threshold. Next, local maxima (node) around the peaks were determined. To correct for the possible slope during the particle/cell transition through the cantilever, a baseline was calculated and subtracted from the measured peaks by fitting a first order polynomial at frequency data points prior and posterior of the cell signal. For single-cell volume measurements (FIG. 16A), baselines were fitted with a second order polynomial to account for the baseline fluctuation due to fluid exchange. Both local maxima and minima in the cell signal were subtracted from the linear baseline to obtain the buoyant mass (local minima, antinode) and node deviation (local maxima, node). For single-cell end-point assays (population measurements), frequency peaks were rejected when local minima (two antinodes) differed from each other more than 10% of the average value and/or local maxima (two nodes) differed from each other more than 15% of the average value of local minima, which occur when multiple cells or cell with debris enter the SMR simultaneously. Peaks were rejected if their shape was atypical (e.g., particle/cell stuck in the cantilever). […]

[2] = tested on: L1210 cells; assay: Imaging of F-actin (LifeAct-RFP) in live L1210 cells before and after chemical treatment; type: cell-based, mouse; conditions: live L1210 cells expressing LifeAct-RFP, before and after 30 min treatment; 1 μM LatB, 1 μM CytoD, Noc 1 μg/ml
Procedure: L1210 FUCCI cells, which express the fluorescence cell cycle marker construct mAG-hGem, were transfected with LifeAct, a F-actin labelling red fluorescent protein construct, using rLVUbi-LifeAct-TagRFP lentiviral vector obtained from ibidi GmbH. Several rounds of transfections were carried out using spinoculation. In short, 1.5×10^5 L1210 FUCCI cells were mixed with 10 μg/ml Polybrene (EMD Millipore) and 1×106 TU of lentivirus, and the mixture was centrifuged at 800 g for 60 minutes at 25° C. After centrifugation, the cells were moved to normal cell culture media, grown overnight, and the spinoculation procedure was repeated. Cells were moved to normal culture media after three rounds of transfections, and 24 hours later, selection was started by adding 10 μg/ml Puromycin (Sigma-Aldrich). After a week of selection, the transfected population was enriched for cells expressing high levels of LifeAct by FACS sorting using BD FACS Aria.
L1210 cells expressing the FUCCI (mAG-hGem) and LifeAct-RFP F-actin probe (rLVUbi-LifeAct-TagRFP) constructs were imaged on poly-lysine coated glass bottom CellView cell culture dishes (Greiner Bio-One). Media, CO2, and temperature conditions during the imaging were the same as within the SMR. Imaging was carried out using a DeltaVision widefield deconvolution microscope with standard FITC and TRICT filters, 100× oil immersion objective and immersion oil with refractive index of 1.522. […]
All images were deconvolved using standard settings in the softWoRX software. To normalize the effect of photo-bleaching, the total LifeAct signal in the entire images (2048×2048 pixels) that contained multiple cells was calculated. […] During the subsequent image analyses, the LifeAct intensity was corrected with the corresponding decay coefficient calculated from the polynomial fit for each frame. To analyze individual cells, the representative cells that went through the nuclear envelope breakdown and/or cytokinesis during the experiment were determined. These cells were cut out of the larger images and analyzed individually (FIG. 28A).

[3] = tested on: L1210 cells; assay: Continuous single-cell monitoring of SNACS (stiffness) of L1210 cells through mitosis in the SMR; type: cell-based, mouse
Procedure: Next, it was determined if both stiffness and buoyant mass of the same cell could be repeatedly measured in order to monitor cell stiffness during the cell cycle. To do so, a previously reported fluidic control strategy was implemented that enables continuous, non-invasive SMR measurements of the same cell. Employing on-chip microscopy capable of acquiring Differential Interference Contrast (DIC) images, stiffness, buoyant mass and morphology of the same cell over multiple generations was simultaneously measured. […] SNACS is shown in dashed lines when measurement error becomes statistically significant. The morphology of the cell was imaged to pinpoint the onset of anaphase as well as to correct for mass elongation effects on the SNACS measurement during anaphase and telophase (FIG. 24A-24C). Dynamic but consistent changes in cell stiffness during mitosis were observed. […] The error in the SNACS measurement increased after cells became full doublets (˜15 min after the onset of anaphase), making subsequent stiffness changes until division not statistically significant (p>0.05). Although the duration and magnitude of the dynamics varied, we observed a similar trend in cell stiffness in other mammalian cell types: BaF3 (FIG. 15D) and S-Hela (FIG. 15E).
as §1
To measure buoyant mass (antinode) and node deviation (node) from the acquired resonant frequency waveforms, the frequency data was filtered with a third order Savitzky-Golay low-pass filter and the local minima (antinode) that is below a user-defined threshold. Next, local maxima (node) around the peaks were determined. To correct for the possible slope during the particle/cell transition through the cantilever, a baseline was calculated and subtracted from the measured peaks by fitting a first order polynomial at frequency data points prior and posterior of the cell signal. For single-cell volume measurements (FIG. 16A), baselines were fitted with a second order polynomial to account for the baseline fluctuation due to fluid exchange. […]

[4] = tested on: Baf3 cells; assay: Node deviation versus time of Baf3 cells treated with drug (single-cell therapeutic sensitivity); type: cell-based; conditions: a few hours of treatment
Procedure: Acoustic scattering may be used as an early detection marker of single-cell therapeutic sensitivity (FIGS. 11A-11B). […] Viability and proliferation assays are generally not sensitive until 24 hours of drug exposure (data not shown).

## C/C1=C/C(=O)O[C@@H]2C[C@@H](CC[C@H](C)/C=C\CC1)O[C@@](O)([C@@H]1CSC(=O)N1)C2 [Latrunculin B]
[1]
  SNACS (size-normalized acoustic scattering, proxy of cell stiffness) after treatment: decreased the SNACS
[2]
  actin cortex morphology (LifeAct F-actin images): punctured cortex

## N[C@@H](CSC(c1ccccc1)(c1ccccc1)c1ccccc1)C(=O)O [STLC, S-trityl-1-cysteine]
[3]; 5 μM STLC
  stiffness (SNACS) during metaphase arrest: stiffness remained low for several hours

## Cc1ccc2c(c1)C(=O)C1(O)CCN(c3ccccc3)C1=N2 (stereo not drawn) [Blebbistatin]
[3]; 25 μM Blebbistatin
  stiffness in early mitosis: still displayed a gradual stiffness decrease in early mitosis
[3]; 25 μM Blebbistatin, compared with untreated cells
  stiffness dynamics in anaphase and telophase: disappeared
[1]
  SNACS (size-normalized acoustic scattering, proxy of cell stiffness) after treatment: decreased the SNACS

## C=C1[C@@H](C)[C@H]2[C@H](Cc3ccccc3)NC(=O)[C@]23[C@H](OC(C)=O)/C=C/[C@@](C)(O)C(=O)[C@@H](C)C/C=C/[C@H]3[C@@H]1O [Cytochalsin D]
[1]
  SNACS (size-normalized acoustic scattering, proxy of cell stiffness) after treatment: decreased the SNACS
[2]
  actin cortex morphology (LifeAct F-actin images): polarized cortex

## CCN(c1nc(N)c(C(=O)NC(=N)N)nc1Cl)C(C)C [EIPA, ethylisopropylamiloride]
[3]; 10 μM EIPA
  stiffness increase in early anaphase: not present
[3]; 10 μM EIPA (n=5), 5 μM STLC (n=8), mean±standard deviation, control −0.22±0.01
  ΔSNACS, SNACS change in prophase and metaphase (early mitosis): −0.08±0.02

## paraformaldehyde
[1]
  SNACS after crosslinking of cellular structures: opposite change in SNACS
  node deviation after treatment: increased the node deviation

## Cc1ccc(NC(=O)c2ccc(CN3CCN(C)CC3)cc2)cc1Nc1nccc(-c2cccnc2)n1 [Imatinib]
[4]
  node deviation (ND) of treated cells versus DMSO: distinct ND

## COC(=O)Nc1nc2ccc(C(=O)c3cccs3)cc2[nH]1 [Nocodazole]
[1]
  SNACS (size-normalized acoustic scattering, proxy of cell stiffness) after treatment: reduced SNACS
[2]
  actin cortex morphology (LifeAct F-actin images): affected the actin cortex morphology
